The test system of one assay is naïve rats. Briefly: Topical application to paws of naïve rats, behavioural reflex testing (PWL, PWT). Type of assay: in vivo, rat. The following applies: Naïve. The procedure:
(§1) Thermal sensitivity was assessed by measuring paw withdrawal latency (PWL, s) in response to a noxious thermal stimulus (Hargreaves' thermal stimulator, Linton Instrumentation, Diss, UK) directed to the hindpaw mid-plantar glabrous surface. Mechanical sensitivity was recorded as the paw withdrawal threshold (PWT, mN/mm^2) to calibrated von Frey filaments (Stoelting, Ill., US), as previously described^[39]. Sensitivity to noxious cold was assessed by placing animals in a waterbath with an aluminium floor containing 1 cm deep 4° C. water and counting the time the paw was held suspended over a 20 s period.
Icilin was applied at concentrations of 2.5-500 μM (in water with 0.2% DMF), by placing CCI or naïve rats unrestrained for 5 min in a 1 cm deep waterbath (sufficient to cover paws), which was thermostatically controlled to a temperature of 30° C., or by very lightly anaesthetising rats and immersing hindpaws in small tubes containing 5 ml icilin (500 μM-5 mM, with a vehicle of 45% dimethylformamide in 0.2% aqueous Tween 80) for 5 min, followed by sensory testing for 60-80 mins. The effects of (−)-menthol and its stereoisomers isomenthol (1S,2R,5R-menthol,) and (+)-menthol (1S,2R,5S(+)-menthol) (4-16 mM in 80% ethanol) were also assessed. Relevant vehicles were always assessed in similar experiments. As a contrast, the effect of cinnamaldehyde (1.5 mM in water) and the effect of cinnamaldehyde with additional icilin (80 μM in water with 0.2% DMF) were assessed in naïve animals. The effects of icilin (80 μM) were further assessed in CCI animals that had undergone antisense and mis-sense treatment for knockdown of TRPM8 or immediately following intrathecal injection of either LY 341495 or UBP 1112. […] The effects of brief paw immersion at different temperatures (10-22° C. for 5 min) on CCI rats were assessed by mechanical testing. The effects of intrathecal LY 341495 or UBP 1112 on the reversal of ipsilateral sensitisation in CCI following a 16° C. cool challenge for 5 min were measured. Reflex testing commenced 5 minutes following challenge, unless animals had been anaesthetised, in which case 15 minutes was allowed for recovery. Six replicate animals were tested in all pharmacological experiments.

The test system of assay [1] is SNL model of neuropathic pain. In words: SNL spinal nerve ligation model, Hargreaves' test, topical icilin. Type of assay: in vivo. The following applies: icilin 200 μM topical. On the procedure: The SNL model of neuropathic pain was set up according to Kim and Chung 1992 (Pain 50: 355-363). The Hargreaves' test for thermal hyperalgesia was carried out as described above and icilin (200 μM) was applied topically to the ipsilateral (⋄) and contralateral (▪) paw. Values are shown as means±SEM. † Indicates statistically significant reversal of sensitisation ipsilateral to nerve injury (see FIG. 1). No significant drug effects were seen on reflex withdrawal responses of the contralateral limb.

The subject of assay [2] is rats with Complete Freund's Adjuvant (CFA)-induced inflammation. In words: Intrathecal icilin in CFA inflammatory pain model (PWL, PWT). The following applies: icilin 10 nmol, i.t. Type of assay: in vivo, rat. The procedure: Pain models were generated under halothane anaesthesia (Zeneca, Cheshire, UK). For the chronic constriction injury (CCI) model of neuropathic pain, four ligatures were tied loosely to constrict the sciatic nerve at mid-thigh level (as described previously^[39]). An inflammatory pain model was generated by injecting 100 μl of Complete Freund's Adjuvant (CFA, Sigma-Aldrich Ltd) into the ventral surface of the right hindpaw^[39]. A model of peripheral demyelination-induced pain was produced by focal application of lysolecithin to the sciatic nerve^[40]. Peak behavioural sensitisation was observed post-surgically between days 10-16 for CCI, 1-3 for CFA, and 7-14 for lysolecithin, when pharmacological and electrophysiological experiments and tissue removal were conducted.
as §1
The following drugs were applied intrathecally in a 50 μl volume of saline-based vehicle at 37° C.: icilin (2.5-200 μM in saline with 0.2% dimethylformamide, DMF), LY 341495 (100 μM in saline), UBP 1112 (200 μM in saline), 2R,4R-APDC ((2R, 4R)-4-aminopyrrolidine-2,4-dicarboxylate), 300 μM in saline), ACPT-III ((1R,3R,4S)-1-aminocyclopentane-1,3,4-tricarboxylic acid), 3 mM in saline), AP-4, ((L-(1)-2-amino-4-phosphonobutyric acid), 3 mM in saline), naloxone (0.5 mM in saline), NMDA (75 μM in saline) and ACPC (1-aminocyclopropanecarboxylic acid, 15 μM in saline) (Tocris Cookson, Bristol, UK), (−)-menthol (1R,2S,5R-(−)-menthol, 4 mM in saline), cinnamaldehyde (1.5 mM in saline) and Ruthenium Red (5 μM in saline) (Sigma-Aldrich Co. Ltd, UK) and allicin (0.5 mM in saline with 0.5% DMF) and diallyl disulphide (DADS, 1 mM in saline with 0.5% DMF) (LKT Laboratories Inc., St Paul, Minn., USA). […] Behavioural reflex testing commenced 15 min following injection to allow recovery from anaesthesia^[40,41,42] and continued every 5 min thereafter until readings returned to baseline levels (n=6 in each case). […]
The TRPM8 channel activators, icilin and (−)-menthol were tested in CCI and naïve animals. The effects of icilin were additionally assessed in animals with CFA-induced inflammation or with lysolecithin-induced demyelination. […]

Assay [3] concerns model of cancer-induced bone pain. In words: Cancer-induced bone pain model (von Frey, rotarod paw lifts). It is filed as in vivo. The following applies: topical icilin. The source says: The model of cancer-induced bone pain was set up according to Medhurst et al., 2002 Pain 96: 129-40.
The mark [4] stands for this setting: icilin 1000 μM applied to paw, 15 mins.
[5] abbreviates: icilin 1000 μM applied to paw, 50 mins.
The mark [6] stands for this setting: icilin 2500 μM applied to paw, 15 mins.
Setting [7] is: icilin 2500 μM applied to paw, 50 mins.
[8] abbreviates: icilin 5000 μM applied to paw, 15 mins.
Setting [9] is: icilin 5000 μM applied to paw, 50 mins.

As for `O=C1NC(c2cccc([N+](=O)[O-])c2)=CCN1c1ccccc1O` [icilin, 1-(2′-hydroxyphenyl)-4-(3″-nitrophenyl)-1,2,3,6-tetrahydropyrimidin-2-one], the “Mechanical PWT” value is listed as 4830.6 ± 0.0 mN/mm^2 with naïve rats (setting [4]); 4830.6 ± 0.0 mN/mm^2 in the assay on naïve rats (setting [5]); 4830.6 ± 0.0 mN/mm^2 in the assay on naïve rats (setting [6]); 4830.6 ± 0.0 mN/mm^2 with naïve rats (setting [7]); 3828.6 ± 316.8 mN/mm^2 in the assay on naïve rats (setting [8]); 4830.6 ± 0.0 mN/mm^2 with naïve rats (setting [9]). Moreover, the “Thermal PWL” value with naïve rats (setting [4]) is 15.1 ± 1.2 s; in the assay on naïve rats (setting [5]), 14.8 ± 0.9 s; in the assay on naïve rats (setting [6]), 14.9 ± 0.3 s; with naïve rats (setting [7]), 13.2 ± 0.8 s; in the assay with naïve rats (setting [8]), 15.3 ± 0.5 s; in the assay with naïve rats (setting [9]), 13.1 ± 0.7 s. Also, the “analgesia, thermal hyperalgesia (Hargreaves' test)” value in assay [1] is on record as “causes analgesia”. Besides, the “Mean % reversal of mechanical sensitisation (after 15-30 mins)” value in assay [2] was 42.6 ± 2.8%. For the same compound, in assay [2], the “Mean % reversal of thermal sensitisation (after 15-30 mins)” value came out at 66.0 ± 7.5%. In addition, in assay [2], the “PWL (s) difference from control (+ icilin)” value stood at 1.6 ± 1.6 s. For the same compound, in assay [2], the “PWT (mN/mm^2) difference from control (+ icilin)” value is reported as 1707.6 ± 149.9 mN/mm^2. In assay [3], the “analgesia in cancer-induced bone pain (mechanical allodynia, movement-evoked pain)” value is “causes analgesia”.
